*1 amine or outer side, *2 acyl side, *3 side chain or, on linkers, in order; H or OH if unused. Where a SMILES comes first, the peptide text is derived from it. Where no end group is shown, it is not given here. [ ]: non-standard residue; d: D form. The star is where a group is joined. Myristoyl = CCCCCCCCCCCCCC(=O)*; Suc = O=C(CCC(=O)[*:2])[*:1]; Aoc = NCCCCCCCC(=O)O; Ahx = NCCCCCC(=O)O
Target: T1, HIV-1 protease (Human immunodeficiency virus type 1 group M subtype B, UniProt P03366)
Assay: inhibitory activity against HIV-1 protease (cleavage of substrate Suc-Ser-Gln-Asn-Tyr-Pro-Ile-Val-Gln, HPLC / PICO-TAG analysis)
Assay type: biochemical
Parameters: partial pol protein containing HIV-1 protease; β-galactosidase (fusion partner in the expressed precursor); made in house; host or cells: E. coli K12 (UT481)
Details: same way as in 2) in Example 1
Protocol: (§1) Plasmid pLB550-1 for expressing a fusion protein of partial pol protein containing HIV-1 protease and β-galactosidase was transfected into E. coli K12 (UT481) [Werman, K. F. et al. J. Bacteriol, 163: 376 - 384 (1985)] by the CaCl2 method, and was enzyme-induced by isopropyl-β-D(-)-thiogalactopyranoside and was cultured for 6 hours. Thereafter, the bacteria were collected. The bacterial were treated with lysozyme and crashed with glass beads. Subsequently, the solubilized supernatant was purified by DEAE-cellulofine, SP-Toyopearl and pepstatin A agarose column chromatography, to obtain a purified HIV-1 protease.
Synthesized peptide composed of Suc-Ser-Gln-Asn-Tyr-Pro-Ile-Val-Gln as a substrate was dissolved into 50 mM MES-NaOH buffer solution (pH 5.5) so that its concentration in enzyme reaction would be 0.57 mM, 1.25 mM, 1.43 mM, 1.67 mM and 2.0 mM. […] Thereafter, enzyme activity thereof was measured by means of a PICO-TAG amino acid composition analyzing device. The initial velocities at the respective concentrations of the substrate were calculated and then analysis was performed based on by Lineweaver-Burk plots. […]
(§2) Concerning these 30 kinds of compounds, inhibitory effect against of HIV protease and IC50 were measured in the same way as in 2) in Example 1.

Row | Compound | IC50 [µM]
1 | CCCCCCCCCCCC(=O)N[C@@H](CCSC)C(=O)O [Compound 25, N-Lau-M] | 124
2 | CCCCCCCCCCCCCC(=O)N[C@@H](CCSC)C(=O)O [Compound 23, N-Myr-M] | 44

Target: T1, HIV-1 protease
Assay: as above
Assay type: biochemical
Parameters: β-galactosidase (fusion partner in the expressed precursor); made in house; host or cells: E. coli K12 (UT481)
Details: class symbols, inhibitory effect at 500 µM or less; read-out: IC50(µM) (Inhibitory effect)
Protocol: as §1
Synthesized peptide composed of Suc-Ser-Gln-Asn-Tyr-Pro-Ile-Val-Gln as a substrate was dissolved into 50 mM MES-NaOH buffer solution (pH 5.5) so that its concentration in enzyme reaction would be 0.57 mM, 1.25 mM, 1.43 mM, 1.67 mM and 2.0 mM. Into 50 µl of these substrate solutions, 50 µl of the purified enzyme solution of HIV-1 protease, obtained in the aforementioned preparing step, was added and then enzyme reaction was carried out at 37°C for 0 , 5, 10 and 15 minutes, respectively. To these solutions, 11.1 µl of acetonitryl containing 1% TFA was added to stop the enzyme reaction. The peptides obtained by the enzyme reaction were separated by high-performance liquid chromatography. Thereafter, enzyme activity thereof was measured by means of a PICO-TAG amino acid composition analyzing device. The initial velocities at the respective concentrations of the substrate were calculated and then analysis was performed based on by Lineweaver-Burk plots. […] In the substrate, the cleavage region was between Tyr and Pro.
On the other hand, the synthesized peptide, Suc-Ser-Gln-Asn-Tyr-Pro-Ile-Val-Gln as a substrate was used to measure inhibitory activity of the peptide of the sequence number 1 against HIV-1 protease as follows: 50 µl of the enzyme solution was added to 30 µl of solution of the peptide of the sequence number 1 in which the peptide was dissolved into 50 mM of MES-NaOH buffer solution (pH 5.5) so that its final concentration would be 10, 20, 40, 100 and 200 µM, and then enzyme reaction was carried out at 37 °C for 30 minutes.
Next, the solution of the substrate, Suc-Ser-Gln-Asn-Tyr-Pro-Ile-Val-Gln was added thereto so that its final concentration would be 1 mM, and then enzyme reaction was carried out at 37 °C for 0, 5, 10 and 15 minutes. To these solutions, 11.1 µl of acetonitryl containing 1% TFA was added to stop the enzyme reaction. The peptides obtained by the enzyme reaction were separated by high-performance liquid chromatography. Thereafter, enzyme activity thereof was measured by means of a PICO-TAG amino acid composition analyzing device. […] (The relative activity is represented as a percentage relative to the enzyme activity (value: 100) in the absence of the peptide of the sequence number 2.) From this graph, IC50 was calculated and obtained, so that IC50 was 10 µM.
50 µl of the enzyme solution was added to 30 µl of the peptide of the sequence number 2 dissolved into 50 mM of MES-NaOH buffer solution so that its final concentration would be 10 µM and then enzyme reaction was carried out at 37 °C for 30 minutes. The solution of the substrate, Suc-Ser-Gln-Asn-Tyr-Pro-Ile-Val-Gln was added thereto so that its final concentration would be 0.579 1.0, 1.43, 2.0 and 2.5 mM, and then enzyme reaction was carried out at 37 °C for 0, 5, 10 and 15 minutes. To these solutions, 11.1 µl of acetonitryl containing 1% TFA was added to stop the enzyme reaction, and then analysis was performed from Lineweaver-Burk plots. […] A control experiment was carried out in the absence of the peptide of the sequence number 2, in the same way.
as §2

Row | Compound | IC50 [µM]
3 | AEAMAQVTN [Compound 9, AEAMAQVTN] | ≤ 500
4 | CC[C@H](C)[C@H](NC(=O)[C@@H](NC(=O)[C@H](C)NC(=O)[C@@H]1CCCN1C(=O)[C@H](CC(N)=O)NC(=O)[C@@H](NC(=O)[C@@H](NC(=O)[C@H](CCC(N)=O)NC(=O)[C@H](CO)NC(=O)[C@H](CCSC)NC(=O)[C@H](C)NC(=O)[C@H](CCC(=O)O)NC(=O)[C@H](C)N)C(C)C)[C@@H](C)O)[C@@H](C)O)C(=O)N[C@@H](CCSC)C(=O)O [Compound 3, AEAMSQVTNPATIM] | ≥ 500
5 | AAAMSQVTN [Compound 7, AAAMSQVTN] | ≤ 500
6 | AEAMSQVT [Compound 12, AEAMSQVT] | ≥ 500
7 | CC[C@H](C)[C@H](NC(=O)[C@@H](NC(=O)[C@H](C)NC(=O)[C@@H](NC(=O)[C@H](CC(N)=O)NC(=O)[C@@H](NC(=O)[C@@H](NC(=O)[C@H](CCC(N)=O)NC(=O)[C@H](CO)NC(=O)[C@H](CCSC)NC(=O)[C@H](C)NC(=O)[C@H](CCC(=O)O)NC(=O)[C@H](C)N)C(C)C)[C@@H](C)O)[C@@H](C)O)[C@@H](C)O)C(=O)N[C@@H](CCSC)C(=O)O [Compound 4, AEAMSQVTNTATIM] | ≤ 500
8 | CSCC[C@H](NC(=O)CCCCCCCNC(=O)CCCCCCCN)C(=O)NCCCCCCCC(=O)O [Compound 30, N-AocAocMAoc] | ≥ 500
9 | CSCC[C@H](NC(=O)[C@H](C)NC(=O)[C@H](CCC(=O)O)NC(=O)[C@H](C)N)C(=O)O [Compound 19, AEAM] (H-AEAM-OH) | ≥ 500
10 | CSCC[C@H](NC(=O)[C@H](C)NC(=O)[C@H](CCC(=O)O)NC(=O)[C@H](C)NC(=O)CCC(=O)O)C(=O)N[C@@H](CO)C(=O)N[C@@H](CCC(N)=O)C(=O)NCCCCCC(=O)O [Compound 16, Suc-AEAMSQAhx] (Suc-AEAMSQ[Ahx]-OH) | ≥ 500
11 | CSCC[C@H](NC(=O)[C@H](C)NC(=O)[C@H](CCC(=O)O)NC(=O)[C@H](C)N)C(=O)N[C@@H](CO)C(=O)N[C@@H](CCC(N)=O)C(=O)NCCCCCCCC(=O)O [Compound 14, AEAMSQAoc] (H-AEAMSQ[Aoc]-OH) | ≥ 500
12 | CC(C)[C@H](N)C(=O)N[C@H](C(=O)N[C@@H](CC(N)=O)C(=O)O)[C@@H](C)O [Compound 21, VTN] (H-Val-Thr-Asn-OH) | ≥ 500
13 | AEAMSQ [Compound 17, AEAMSQ] | ≥ 500
14 | AEAASQVTN [Compound 8, AEAASQVTN] | ≥ 500
15 | VTNTATIM [Compound 22, VTNTATIM] | ≥ 500
16 | AEAMSQV [Compound 13, AEAMSQV] | ≥ 500
17 | CSCC[C@H](NC(=O)CCCCCCCN)C(=O)NCCCCCCCC(=O)NCCCCCCCC(=O)O [Compound 29, N-AocMAocAoc] | ≥ 500
18 | CSCC[C@H](NC(=O)CCCCCCCN)C(=O)O [Compound 27, N-AocM] | ≥ 500
19 | AEAMSQVAN [Compound 10, AEAMSQVAN] | ≥ 500
20 | CSCC[C@H](NC(=O)CCCCCCCN)C(=O)NCCCCCCCC(=O)O [Compound 28, N-AocMAoc] | ≥ 500
21 | CSCC[C@H](NC(=O)[C@H](C)NC(=O)[C@H](CCC(=O)O)NC(=O)[C@H](C)N)C(=O)N[C@@H](CO)C(=O)N[C@@H](CCC(N)=O)C(=O)NCCCCCC(=O)O [Compound 15, AEAMSQAhx] (H-AEAMSQ[Ahx]-OH) | ≥ 500
22 | AEAMSQVANTATIM [Compound 5, AEAMSQVANTATIM] | ≤ 500

Same assay, conditions: same way as in 2) in Example 1; read-out: IC50

Row | Compound | IC50 [µM]
23 | AEAMSQVTL [Compound 11, AEAMSQVTL] | 53
24 | AEAMSQVTN [Compound 6, AEAMSQVTN] | 6
25 | AEAMSQVTNSATIM [Compound 2, AEAMSQVTNSATIM] | 22
26 | CCCCCCCCCCCCCC(=O)N[C@@H](C)C(=O)N[C@@H](CCC(=O)O)C(=O)N[C@@H](C)C(=O)N[C@@H](CCSC)C(=O)N[C@@H](CO)C(=O)N[C@@H](CCC(N)=O)C(=O)O [Compound 18, N-Myr-AEAMSQ] (Myristoyl-AEAMSQ-OH) | 79
27 | CCCCCCCCCCCCCC(=O)N[C@@H](C)C(=O)N[C@@H](CCC(=O)O)C(=O)N[C@@H](C)C(=O)N[C@@H](CCSC)C(=O)O [Compound 20, N-Myr-AEAM] (Myristoyl-AEAM-OH) | 16

Same assay, conditions: substrate 0.57-2.0 mM, pH 5.5, 37°C, Lineweaver-Burk plots (Fig. 1)

Row | Compound | Km [µM]
28 | CC[C@H](C)[C@H](NC(=O)[C@@H]1CCCN1C(=O)[C@H](Cc1ccc(O)cc1)NC(=O)[C@H](CC(N)=O)NC(=O)[C@H](CCC(N)=O)NC(=O)[C@H](CO)NC(=O)CCC(=O)O)C(=O)N[C@H](C(=O)N[C@@H](CCC(N)=O)C(=O)O)C(C)C [Suc-Ser-Gln-Asn-Tyr-Pro-Ile-Val-Gln, reference compound] (Suc-SQNYPIVQ-OH) | 2200

Target: T1, HIV-1 protease
Assay: not given
Parameters: β-galactosidase (fusion partner in the expressed precursor); made in house; host or cells: E. coli K12 (UT481)
Details: Biochem. Biophys. Res. Commun. 194: 595 - 600; cited from earlier work

Row | Compound | inhibitory activity
29 | Ac-TVSFNF | has inhibitory activity

From EP0922455A1, “HIV-1 PROTEASE INHIBITORS, PROCESS FOR PRODUCING THE SAME, AND MEDICINAL COMPOSITIONS” (NISSUI PHARMACEUTICAL CO., LTD., priority 1997, dated 1998)
